Laboratory results taken from US12721853B2, “Applications of CX-5461 in treating immune rejection in renal transplantation” (Sun Yat-sen University, priority 2022, dated 2026).

Columns and labels:
renal implants = test: Appearance of the kidney graft, acute rejection model after renal transplantation in rats; assay type: in vivo, rat; conditions: seventh day after renal transplantation, CX5461 of 2 mg/kg, compared with acute rejection group (AR)
Source text: (§1) • (1) Lewis male rats and Brown Norway male rats are purchased from Beijing Vital River Laboratory Animal Technology Co., Ltd., with weight of around 200 g and age of 6-8 weeks old, and the rearing environment is of SPF level. • (2) Establishment of acute rejection model after renal transplantation in rats: the donor of Brown Norway male rats aged 6-8 weeks, about 200 g, is transplanted into Lewis male rats, and the surgical scheme is end-to-end renal vein anastomosis as reported in most literatures. The experimental groups are divided into normal group (Control) of donor rats, acute rejection (AR) group and drug group (CX5461 of 2 mg/kg) with 5 rats each. After successful renal transplantation, the rats are killed at 3 days, 5 days and 7 days after operation, and blood is collected from the lower abdominal aorta by using a 5 mL sterile syringe. […] Subsequently, the concentration and purity of total RNA are measured using a Nanodrop. Using the RNA as a template, reverse transcription is performed by reverse transcription kit of Beijing TransGen Biotech Company to obtain a cDNA template, and quantitative PCR analysis is carried out by using this cDNA as a template and using TransGen qPCR kit according to the instructions and the detection primers shown in Table 1 below.

[1] = test system: IL-6, IL-10, IL-17A cytokines in spleen; test: Real-time RT-PCR of cytokines in spleen after renal transplantation; assay type: in vivo, rat; conditions: seventh day after renal transplantation, compared with AR group, ***P<0.001
Source text: as §1, with “syringe. The collected blood is placed in a procoagulants tube at room temperature for 1 h, centrifuged at 4000 r/min in a centrifuge at 4° C. for 10 min, and the obtained serum is packaged in an EP tube and frozen at −80° C. for enzyme-linked immunosorbent assay (ELISA) detection.” for “syringe.”

[2] = test system: IL-6, IL-10 cytokines in serum; test: ELISA of cytokines in serum after renal transplantation; assay type: in vivo, rat; conditions: seventh day after renal transplantation, compared with AR group, ***P<0.001
Source text: as §1, with “below. […]” for “below.”

[3] = Creatinine and urea nitrogen levels in blood after renal transplantation; assay type: in vivo, rat
Source text: • (1) Lewis male rats and Brown Norway male rats are purchased from Beijing Vital River Laboratory Animal Technology Co., Ltd., with weight of around 200 g and age of 6-8 weeks old, and the rearing environment is of SPF level. • (2) Establishment of acute rejection model after renal transplantation in rats: the donor of Brown Norway male rats aged 6-8 weeks, about 200 g, is transplanted into Lewis male rats, and the surgical scheme is end-to-end renal vein anastomosis as reported in most literatures. The experimental groups are divided into normal group (Control) of donor rats, acute rejection (AR) group and drug group (CX5461 of 2 mg/kg) with 5 rats each. […] The collected blood is placed in a procoagulants tube at room temperature for 1 h, centrifuged at 4000 r/min in a centrifuge at 4° C. for 10 min, and the obtained serum is packaged in an EP tube and frozen at −80° C. for enzyme-linked immunosorbent assay (ELISA) detection. The removed transplanted kidney is cut in half along the longitudinal axis and soaked in 4% paraformaldehyde for pathological reaction verification. • (3) Real-time RT-PCR analysis: RNA is extracted from rat spleen by using Trizol method, and the specific operation is as follows: 1 mL of Trizol is added to the EP tube containing rat spleen and placed in the refrigerator at 4° C. for 10 min; then, porcelain beads are added into it and put into an automatic grinder, and ground at 4° C. for 5 min; 0.2 mL chloroform (i.e., ⅕ Trizol volume) is added into the EP tube, followed by shaking vigorously for about 20 times, then centrifuging at 12,500 rpm at 4° C. for 15 min; the obtained upper aqueous phase is placed in a new EP tube and carefully aspirated about 3 times with a 200 μL gun tip, and approximately an equal volume of isopropanol (i.e., 600 μL) is added, and the RNA is precipitated by centrifugation at 12,500 rpm for 15 min at 4° C., at which time a white RNA precipitate is seen. Then, 1 ml of 75% ethanol is added for washing twice, followed by centrifugation at 12500 rpm and 4° C. for 5 min. The supernatant is discarded and the precipitated RNA is allowed to dry naturally in an ultra-clean bench. RNA is obtained by dissolving the RNA precipitate with 100 μL of Rnase-free water. Subsequently, the concentration and purity of total RNA are measured using a Nanodrop. Using the RNA as a template, reverse transcription is performed by reverse transcription kit of Beijing TransGen Biotech Company to obtain a cDNA template, and quantitative PCR analysis is carried out by using this cDNA as a template and using TransGen qPCR kit according to the instructions and the detection primers shown in Table 1 below.

[4] = Survival of rats after renal transplantation; assay type: in vivo, rat; conditions: compared with acute rejection group
Source text: as §1

transplanted kidney = test: H&E staining and immunohistochemical staining (anti-IL-17A) of transplanted kidney; assay type: in vivo, rat; conditions: seventh day after renal transplantation
Treg cells in the spleen = test: CD4+CD25+Foxp3+ flow cytometry of spleen; assay type: in vivo, rat; conditions: seventh day after renal transplantation
[5] = test system: Pol I-driven rRNA transcription; conditions: cited from earlier work
Pol II = conditions: cited from earlier work
[6] = third, fifth and seventh day after renal transplantation, AR group continues to increase
[7] = within 42 days after renal transplantation

In the case of `Cc1cnc(CNC(=O)c2c(=O)c3ccc(N4CCCN(C)CC4)nc3n3c2sc2ccccc23)cn1` [CX-5461], the “inflammatory immune infiltration, appearance of the kidney graft” value (renal implants) is reported as “no obvious inflammatory immune infiltration”, the “renal fibrosis, appearance of the kidney graft” value (renal implants) is reported as “less renal fibrosis” and the “IL-6 cytokine in spleen” value [1] is reported as “significantly down-regulated”. For the same compound, the “IL-10 cytokine in spleen” value [1] was “significantly up-regulated”, the “IL-17A cytokine in spleen” value [1] was “significantly down-regulated” and the “IL-6 cytokine in serum” value [2] was “significantly down-regulated”. The “IL-10 cytokine in serum” value [2] was “up-regulated”, the creatinine level [3, 6] was “remain at a low level” and the urea nitrogen level [3, 6] was “remain at a low level”. For the same compound, the creatinine level [3, 7] was “remain at a relatively low level”, the urea nitrogen level [3, 7] was “remain at a relatively low level” and the “survival time of rats after renal transplantation” value [4] was “significantly longer”. For the same compound, the “IL-17A cytokine in kidney transplant (immunohistochemistry)” value (transplanted kidney) was “reducing the levels of IL-17A cytokine”, the “changes in renal tubules (H&E staining)” value (transplanted kidney) was “no obvious changes in renal tubules” and the “glomerulus shrinkage (H&E staining)” value (transplanted kidney) was “no obvious shrinkage”. For the same compound, the “infiltration of inflammatory cells (staining)” value (transplanted kidney) was “no obvious infiltration of inflammatory cells”, the “renal fibrosis (staining)” value (transplanted kidney) was “reduced renal fibrosis” and the “proportion of Treg cells (CD4+CD25+Foxp3+) in the spleen” value (Treg cells in the spleen) was “obviously increased”. The IC50 ([5]; HCT-116, A375, and MIA PaCa-2 cells, read-out: IC50, inhibition of Pol I-driven rRNA transcription) was 142 nM, the “selectivity of rRNA transcription inhibition over DNA replication and protein translation” value [5] was 250- to 300 fold and the “effect on Pol II” value (Pol II) was “no effect”.
